A short description of the data set: Human HepG2 cell viability assay in 384 well format. The data set is classed as toxicity, cell-based. Also on record: dose 125 nL, time 70.5 hour; concentration not given beside the values. The following applies: HepG2 cells, read-out: Inhibition.

SMILES strings stand for the structures.

For the compound `O=S1(=O)N(c2ccccc2)C[C@@H](O)[C@]12CCNC2`, the cytotoxicity at 70.5 h was -3.92%.
`CO[C@@H]1CN(c2ccccc2)S(=O)(=O)[C@@]12CCNC2`: the cytotoxicity at 70.5 h worked out at 11.6%.
The result for `CN1CC[C@H](N(C)Cc2ccccc2)C[C@H](O)C1` reads -10.5%; that for `CN1CC[C@H](N(Cc2ccccc2)C2COC2)C[C@H](O)C1`, -6.77%; that for `COC(=O)CC1c2cccnc2C(=O)N1Cc1ccccc1` (stereo not drawn), -3.32%.
For `CCOC(=O)N1[C@@H](c2ccco2)[C@@H](C(=O)O)C[C@]12CCCCNC2=O`, the cytotoxicity at 70.5 h was -7.52%.
The result for `CCN1Cc2cc(F)ccc2N(CC(O)C(F)(F)F)CCC1=O` (stereo not drawn) reads -8.41%.
The result for `CCCC(O)CN1CCC(=O)N(CC)Cc2cc3c(cc21)OCO3` (stereo not drawn) reads -3.11%; that for `CN1C(=O)[C@H](OC(N)=O)[C@@H](C(=O)Nc2ccccc2)C12CCNCC2`, -10.7%.
Turning to `CC(C)COC(=O)N1[C@@H](c2ccco2)[C@@H](CO)C[C@]12CCCCNC2=O`, the cytotoxicity at 70.5 h was -9.55%.
In the case of `CCN1CCC(=O)N(C)Cc2cc(F)ccc21`, the cytotoxicity at 70.5 h is -8.5%.
Under `O=C(Nc1ccccc1)N1C(CN2CCOCC2)[C@]2(O)CC[C@H]1CC2` (stereo partly drawn) stands -2.88%; under `O=C1CCNc2ncc(-c3cccc(Cl)c3)cc2CN1C1CC1`, -1.89%; under `O=C1CCNc2ncc(-c3ccccc3Cl)cc2CN1C1CC1`, 0.196%.
As to `NC(=O)CN1CC(O)c2ccccc2S1(=O)=O` (stereo not drawn), the cytotoxicity at 70.5 h was -9.19%.
Take `COC1CN(CCO)S(=O)(=O)c2ccccc21` (stereo not drawn): the cytotoxicity at 70.5 h was -7.83%.
`O=C1CCNc2cc3c(cc2CN1Cc1ccco1)OCO3`: the cytotoxicity at 70.5 h was -5.93%.
Take `CCOC(=O)[C@@H]1[C@@H](c2ccccc2)CN2CCNC[C@H]12`: the cytotoxicity at 70.5 h is -11%.
On to `CO[C@@H]1CN(c2ccccc2)S(=O)(=O)[C@@]12CCN(Cc1ccccc1)C2`, for which the cytotoxicity at 70.5 h is -1.84%.
For the compound `CO[C@@H]1CN(c2ccccc2)S(=O)(=O)[C@@]12CCN(Cc1cncs1)C2`, the cytotoxicity at 70.5 h is -2.7%.
The result for `CO[C@H]1CN(c2ccccc2)S(=O)(=O)[C@@]12CCN(Cc1ccccc1)C2` reads 19.1%.
For `CC(O)CN1CCC(=O)N(Cc2ccccc2)Cc2ccccc21` (stereo not drawn), the cytotoxicity at 70.5 h was 21.2%.
Take `COCC(O)CN1CCC(=O)N(CC=C(C)C)Cc2ccccc21` (stereo not drawn): the cytotoxicity at 70.5 h was -6.53%.
As to `COCCN1CC(O)CN(C(=O)c2ccc(SC)cc2)CC1=O` (stereo not drawn), the cytotoxicity at 70.5 h is -4.29%.
For `CCOC(=O)N1CC(=O)N(Cc2ccc(OC)cc2)CC(O)C1` (stereo not drawn), the cytotoxicity at 70.5 h amounted to 0.836%.
Regarding `CC(C)CN1CC(O)CN(C(=O)c2cccc(C(F)(F)F)c2)CC1=O` (stereo not drawn), the cytotoxicity at 70.5 h worked out at 13.3%.
The result for `CCCC(O)CN1CC(C)(C)CN(C(=O)CCc2ccccc2)CC1=O` (stereo not drawn) reads 19.5%; that for `CC(C)(C)CN1CC(O)CN(C(=O)c2cccc(C(F)(F)F)c2)CC1=O` (stereo not drawn), -7.28%; that for `COc1ccccc1C(=O)N1CC(=O)N(C2CCCCC2)CC(O)C1` (stereo not drawn), 15.8%.
With `O=C1CN(C(=O)c2ccc(Cl)cc2)CC(O)CN1Cc1cccs1` (stereo not drawn), the cytotoxicity at 70.5 h is -5.51%.
The result for `COC1CCN(C(=O)CC(C)(C)C)CC(=O)N(C)c2ccccc21` (stereo not drawn) reads 6.54%; that for `COC1CCN(C(=O)Nc2ccccc2)CC(=O)N(C)c2ccccc21` (stereo not drawn), -6.71%.
On to `CCOC(=O)CNC(=O)N1CCC(OC)c2ccccc2N(C)C(=O)C1` (stereo not drawn), for which the cytotoxicity at 70.5 h is -6.05%.
Under `CCOC(=O)COC1CCN(C(C)=O)CC(=O)N(C)c2ccccc21` (stereo not drawn) stands -3.91%; under `O=C(CC1CCCC1)N1CCN2C[C@@H](CO)[C@H](c3ccccc3)[C@H]2C1`, 24.2%; under `CNC(=O)[C@@H]1[C@@H](c2ccccc2)CN2CCN(Cc3cc(C)no3)C[C@H]12`, -4.59%.
Under `Cc1cc(CN2CCN3C[C@H](c4ccccc4)[C@@H](CO)[C@H]3C2)on1` stands -5.95%.
`COCC(=O)N1CC2=CC(C)(C)COc3ccc(OC)c(c32)C1`: the cytotoxicity at 70.5 h stood at 21.5%.
Under `COc1ccc2c3c1CN(C(=O)N(C)C)CC3=CC(C)(C)CO2` stands -6.85%.
Take `COc1ccc2c3c1CN(S(C)(=O)=O)CC3=CC(C)(C)CO2`: the cytotoxicity at 70.5 h was -6.24%.
Consider `CCCS(=O)(=O)N1CC(=O)N(Cc2ccccc2OC)CC(O)C1` (stereo not drawn), for which the cytotoxicity at 70.5 h was found to be 18.5%.
Take `CC(C)COC(=O)N1CC(=O)N(CCCc2ccccc2)CC(O)C1` (stereo not drawn): the cytotoxicity at 70.5 h was -4.38%.
Consider `COc1cccc(OC)c1CN1CC(O)CN(S(C)(=O)=O)CC1=O` (stereo not drawn), for which the cytotoxicity at 70.5 h was found to be 25.6%.
The result for `COC1CN(C(=O)NC2CCCC2)CCC(=O)N(C)c2ccccc21` (stereo not drawn) reads -1.11%; that for `CCN1Cc2cc(F)ccc2N(C(C)=O)CCC1=O`, -3.82%; that for `CCN1Cc2cc(F)ccc2N(C(=O)C2CCC2)CCC1=O`, -9.67%.
In the case of `CC(C)CCc1cc(C(=O)O)nc2[nH]c(=O)[nH]c(=O)c12`, the cytotoxicity at 70.5 h was -15.5%.
Regarding `NCCC(Cc1ccccc1)c1ccco1` (stereo not drawn), the cytotoxicity at 70.5 h was 35%.
Under `Cc1cnc(N2CCC3(CCC(C(=O)NC(C)C)OC3)CC2)nc1` (stereo not drawn) stands -2.25%.
The result for `CC(=O)NCc1noc2c1CN(Cc1ccsc1)CC2` reads -7.56%; that for `Cc1ccc(CN2C[C@H]3C[C@H](C(=O)NCc4cccnc4)[C@@H](C2)O3)o1`, -8.69%.
With `Cc1cccc(S(=O)(=O)N2C[C@H]3C[C@H](C(=O)NCC(C)C)[C@@H](C2)O3)c1`, the cytotoxicity at 70.5 h worked out at 25.7%.
As for `CCc1ccc(C(=O)NCCNc2ncccn2)cc1`, the cytotoxicity at 70.5 h came to 11.9%.
As to `O=C(Cc1ccc2c(c1)CCCC2)NCCNc1cnccn1`, the cytotoxicity at 70.5 h is -11.7%.
Regarding `Cc1cccc(N2CCN(C(=O)CCc3c(C)noc3Cl)CC2)c1`, the cytotoxicity at 70.5 h is -8.69%.
As to `O=C(CNC(=O)c1ccc2c(c1)CCC2)NCCNc1ncccn1`, the cytotoxicity at 70.5 h was -14.4%.
Under `Cc1cnn(C2CN(CC(=O)NCCc3ccsc3)C2)c1` stands -13.7%; under `CCCOCC(=O)NS(=O)(=O)c1ccc2c(c1)OCCO2`, -0.678%; under `Cc1cnn(C2CN(CC(=O)NCCc3c[nH]c4ccccc34)C2)c1`, -9.92%.
As to `O=C(COCC(F)(F)F)NS(=O)(=O)c1ccc2c(c1)OCCCO2`, the cytotoxicity at 70.5 h was -6.81%.
Regarding `CC(C)CC(=O)NS(=O)(=O)c1ccc2c(c1)OCCCO2`, the cytotoxicity at 70.5 h was -8.04%.
In the case of `COc1cc(CCC(=O)NC(C)C(=O)O)ccc1OCC(F)(F)F` (stereo not drawn), the cytotoxicity at 70.5 h is -13%.
As for `Cc1cnc(N2CCC3(CCC(C(=O)NC(C)C)C3)CC2)nc1` (stereo not drawn), the cytotoxicity at 70.5 h was -7.58%.
For `COCCN1CCO[C@H]2CCN(C(=O)c3ccnnc3)CC[C@@H]21`, the cytotoxicity at 70.5 h is -8.98%.
Under `O=S(=O)(c1ccc(F)cc1)N1CC[C@H]2[C@H]1CCN2c1ncccn1` stands -2.97%; under `O=S(=O)(c1cccc(F)c1)N1CC[C@H]2[C@H]1CCN2c1ncccn1`, 1.7%; under `CN(C)c1cc(NCc2cnc3n2CCN(CC2CC2)CC3)ncn1`, 2.24%.
For the compound `Cn1ccc(CN2CCC3(CC2)CC(Nc2ccccn2)CO3)n1` (stereo not drawn), the cytotoxicity at 70.5 h was -2.31%.

For the origin of these results see ChEMBL document CHEMBL3507680, “University of Dundee, Gates Library screen for HepG2 cell viability”.
